Data on 23 compounds can be found in patent publication US9776972B2, “Pyrazole derivatives as arginine methyltransferase inhibitors and uses thereof” (priority 2013, dated 2017).

What is called IC50 is the concentration needed to halve the response being measured. A high value points to weaker potency.

The test has as its target T1, Human CARM1 (PRMT4) (Homo sapiens, UniProt Q86X55).
T1 construct: Flag-CARM1-His; made in house; host or cells: HEK 293F cells (BacMam baculovirus)
T1 sequence (Q86X55 1-585 isoform Q86X55-1): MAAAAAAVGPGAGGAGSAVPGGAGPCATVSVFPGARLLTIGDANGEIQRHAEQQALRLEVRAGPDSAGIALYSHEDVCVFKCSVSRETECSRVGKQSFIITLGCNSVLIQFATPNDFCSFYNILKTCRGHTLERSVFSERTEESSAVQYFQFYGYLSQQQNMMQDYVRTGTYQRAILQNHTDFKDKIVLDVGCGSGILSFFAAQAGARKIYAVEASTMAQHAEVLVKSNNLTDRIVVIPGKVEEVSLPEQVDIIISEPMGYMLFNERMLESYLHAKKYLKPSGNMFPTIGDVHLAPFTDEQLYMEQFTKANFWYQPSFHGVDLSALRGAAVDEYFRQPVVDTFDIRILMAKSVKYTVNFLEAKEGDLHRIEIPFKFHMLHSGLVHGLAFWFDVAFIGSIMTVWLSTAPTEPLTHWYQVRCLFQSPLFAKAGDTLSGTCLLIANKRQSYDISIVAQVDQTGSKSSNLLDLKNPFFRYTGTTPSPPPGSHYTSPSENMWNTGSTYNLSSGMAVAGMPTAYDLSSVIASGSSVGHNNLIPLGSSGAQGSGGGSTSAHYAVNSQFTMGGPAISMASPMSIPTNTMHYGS
Kind of test: CARM1 Biochemical Assay (3H-SAM Flashplate, peptide substrate). To be noted: single experiment or average of multiple experiments. An excerpt: S-adenosylmethionine (SAM), S-adenosylhomocysteine (SAH), bicine, Tween20, dimethylsulfoxide (DMSO), bovine skin gelatin (BSG), sodium butyrate and Tris(2-carboxyethyl)phosphine hydrochloride solution (TCEP) were purchased from Sigma-Aldrich at the highest level of purity possible. ^3H-SAM was purchase from American Radiolabeled Chemicals with a specific activity of 80 Ci/mmol. 384-well streptavidin Flashplates were purchased from PerkinElmer.
Peptide representative of human histone H3 residues 16-30 was synthesized with an N-terminal linker-affinity tag motif and a C-terminal amide cap by 21st Century Biochemicals. […] The sequence was Biot-Ahx-[…]-amide and contained a monomethylated arginine at position 26 (SEQ ID NO.: 14).
Recombinant baculovirus were generated according to Bac-to-Bac kit instructions (Life Technologies). […] Infections were carried out at 37° C. for 48 hours, harvested by centrifugation, and stored at −80° C. for purification.
Column was washed with 500 mM NaCl in buffer A and Flag-CARM1-His was eluted with 200 ug/ml FLAG peptide in buffer A. Pooled fractions were dialyzed in 20 mM Tris, 150 mM NaCl, 5% glycerol and 1 mM DTT, pH 7.8.
General Procedure for CARM1 Enzyme Assays on Peptide Substrates.
The assays were all performed in a buffer consisting of 20 mM Bicine (pH=7.6), 1 mM TCEP, 0.005% BSG, and 0.002% Tween 20, prepared on the day of use. […] DMSO (1 ul) was added to Columns 11, 12, 23, 24, rows A-H for the maximum signal control and 1 ul of SAH, a known product and inhibitor of CARM1, was added to columns 11, 12, 23, 24, rows I-P for the minimum signal control. A cocktail (40 ul) containing the CARM1 enzyme was added by Multidrop Combi (Thermo-Fisher). The compounds were allowed to incubate with CARM1 for 30 min at room temperature, then a cocktail (10 ul) containing ^3H-SAM and peptide was added to initiate the reaction (final volume=51 ul). […] The assays were stopped by the addition of non-radiolabeled SAM (10 ul) to a final concentration of 300 uM, which dilutes the ^3H-SAM to a level where its incorporation into the peptide substrate is no longer detectable. 50 ul of the reaction in the 384-well polypropylene plate was then transferred to a 384-well Flashplate and the biotinylated peptides were allowed to bind to the streptavidin surface for at least 1 hour before being washed once with 0.1% Tween20 in a Biotek ELx405 plate washer. The plates were then read in a PerkinElmer TopCount plate reader to measure the quantity of ^3H-labeled peptide bound to the Flashplate surface, measured as disintegrations per minute (dpm) or alternatively, referred to as counts per minute (cpm).
Where dpm=disintegrations per minute, cmpd=signal in assay well, and min and max are the respective minimum and maximum signal controls.
Where top and bottom are the normally allowed to float, but may be fixed at 100 or 0 respectively in a 3-parameter fit. The Hill Coefficient normally allowed to float but may also be fixed at 1 in a 3-parameter fit. Y is the % inhibition and X is the compound concentration.
`C=CCn1cc(CN(C)CCNC)c(-c2ccc(OC(C)C)cc2)n1` [Compound 218] registered a half-inhibitory concentration (IC50) of 0.414 µM.
For `CN(CCN)Cc1c[nH]nc1-c1cccc(N(C)C)c1` [Compound 149], the concentration for half-maximal inhibition (IC50) stood at 1.3 µM.
Then `CNCCN(C)Cc1cn(Cc2ccccc2)nc1-c1ccc(OC(C)C)cc1` [Compound 217], with 0.62 µM.
Then `CNCCN(C)Cc1cnn(C(C)C)c1-c1ccc(F)cc1` [Compound 16], with 6.74 µM.
As for `COc1cc(F)ccc1-c1n[nH]cc1CN(C)CCN` [Compound 151], the concentration for half-maximal inhibition (IC50) was found to be 8.32 µM.
Then `CNCCN(C)Cc1cnn(C2CC2)c1-c1ccc(F)cc1` [Compound 14], with 0.97 µM; and `Cc1ccccc1-c1n[nH]cc1CN(C)CCN` [Compound 161], with 6.13 µM.
In the case of `CNCCN(C)Cc1cn[nH]c1-c1ccc(C#N)cc1` [Compound 17], the IC50 is 1.56 µM.
Then `C=CCn1ncc(CN(C)CCNC)c1-c1ccc(OC(C)C)cc1` [Compound 219], with 0.142 µM.
`CNCCN(C)Cc1cn(C2CCOC2)nc1-c1ccc(OC(C)C)cc1` (centres unmarked) [Compound 215]: the IC50 came to 0.299 µM.
For `COc1ccc(-c2n[nH]cc2CN(C)CCN)cc1` [Compound 153], the IC50 came out at 2.06 µM.
Then `CN(CCN)Cc1c[nH]nc1-c1cc(Cl)ccc1F` [Compound 156], with 6.74 µM; and `Cc1cc(F)ccc1-c1n[nH]cc1CN(C)CCN` [Compound 152], with 6.87 µM; and `CNCCN(C)Cc1cn[nH]c1-c1cc(F)cc(F)c1` [Compound 18], with 0.656 µM.
Then `CCOC(=O)c1cccc(-c2n[nH]cc2CN(C)CCN)c1` [Compound 150], with 2.42 µM; and `CNCCN(C)Cc1cn(C2CCCC2)nc1-c1ccc(OC(C)C)cc1` [Compound 214], with 0.168 µM; and `Cc1ccc(-c2n[nH]cc2CN(C)CCN)cc1` [Compound 162], with 0.612 µM.
Then `CNCCN(C)Cc1cn(C(C)C)nc1-c1ccc(F)cc1` [Compound 15], with 3.4 µM.
`CNCCN(C)Cc1cn(C2CC2)nc1-c1ccc(F)cc1` [Compound 13] had a 50% inhibitory concentration (IC50) of 2.24 µM.
Then `COc1ccc(-c2n[nH]cc2CN(C)CCN)c(Cl)c1` [Compound 146], with 5.77 µM; and `CCn1cc(CN(C)CCNC)c(-c2ccc(OC(C)C)cc2)n1` [Compound 213], with 0.2 µM.
In turn, `CN(CCN)Cc1n[nH]cc1-c1ccc(C2CCOCC2)cc1` [Compound 145] displayed an IC50 of 4.92 µM.
Then `CNCCN(C)Cc1cnn(C2CCOC2)c1-c1ccc(OC(C)C)cc1` (centres unmarked) [Compound 216], with 0.285 µM.
